Measured values: patent publication US10040783B2 (Emory University, priority 2011, dated 2018)
Like-named read-outs stand apart in the source and are kept apart here.

What was measured:
[1] = target: EP4 receptor (Homo sapiens, UniProt P35408); test: Schild regression analysis for EP4 receptor; type: cell-based; details: for Kb: read-out: KB (μM) EP4, from Schild regression analysis
Source text: (§1) Information on the modality of antagonism can be obtained by performing Schild regression analysis characterized by: log (dr−1)=log XB−log KB. In the equation, dose ratio (dr)=fold shift in EC50, XB=[antagonist], KB=equilibrium dissociation constant for the antagonist-receptor complex. […] Thus, a lower KB value indicates a higher inhibitory potency.

[2] = system: C6G cells; test: CellTiter-Glo luminescent cell viability assay (cytotoxicity); details: for CC50: read-out: CC50, half maximal cytotoxic concentration, C6G cells after 48 h incubation
[3] = in vitro; details: rat
[4] = target: EP2 receptor (Homo sapiens, UniProt P43116); test: Schild regression of PGE2-induced EP2 activation in C6G-EP2 cells; type: cell-based; parameters: expressed in transfected cells; host or cells: C6G-EP2 cells
Description: as §1
To perform the Schild regression, C6G-EP2 cells were incubated first with vehicle, 0.01, 0.1 or 1 μM of test compound for 5 minutes, then with increasing concentrations of PGE2 to activate the EP2 receptor.

[5] = system: rat primary hippocampal cultures; test: NMDA-induced LDH release (excitotoxicity) in primary hippocampal cultures; type: cell-based; details: 10 μM compound; NMDA 30 μM plus glycine 10 μM overnight
Source text: Excitotoxicity caused by NMDA receptor activation is recognized to induce neuronal apoptosis both in vitro and in vivo in cortical neurons. NMDA receptor activation can, via COX-2, cause prostaglandin production, including PGE2. Activation of the EP2 receptor by PGE2 in microglia can promote neuroinflammation in several models of neurodegenerative diseases. The effect of EP2 antagonist compounds were examined on NMDA-induced excitotoxicity. Rat primary hippocampal cultures (DIV13-15) were preincubated with vehicle or increasing concentrations of test compound for 15-20 min, followed by treatment with NMDA (30 μM) plus glycine (10 μM) overnight in continued presence of the test compound. Lactate dehydrogenase (LDH) release was used as the measure of neuronal injury.

[6] = C6G-EP2 cells, PGE2 as agonist, read-out: KB (nM) EP2, from Schild regression analysis
[7] = additional compounds tables, read-out: EP2 KB

Sequence of EP2 receptor (P43116 whole entry): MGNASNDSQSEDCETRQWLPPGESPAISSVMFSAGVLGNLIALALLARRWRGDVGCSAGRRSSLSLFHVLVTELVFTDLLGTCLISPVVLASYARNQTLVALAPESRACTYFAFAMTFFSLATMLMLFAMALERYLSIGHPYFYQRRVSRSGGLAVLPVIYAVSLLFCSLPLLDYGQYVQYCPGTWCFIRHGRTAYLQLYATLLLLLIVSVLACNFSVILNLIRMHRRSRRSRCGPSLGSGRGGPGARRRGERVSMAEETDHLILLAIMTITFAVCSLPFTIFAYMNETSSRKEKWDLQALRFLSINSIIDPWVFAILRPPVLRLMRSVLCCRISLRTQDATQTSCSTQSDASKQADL
Sequence of EP4 receptor (P35408 whole entry): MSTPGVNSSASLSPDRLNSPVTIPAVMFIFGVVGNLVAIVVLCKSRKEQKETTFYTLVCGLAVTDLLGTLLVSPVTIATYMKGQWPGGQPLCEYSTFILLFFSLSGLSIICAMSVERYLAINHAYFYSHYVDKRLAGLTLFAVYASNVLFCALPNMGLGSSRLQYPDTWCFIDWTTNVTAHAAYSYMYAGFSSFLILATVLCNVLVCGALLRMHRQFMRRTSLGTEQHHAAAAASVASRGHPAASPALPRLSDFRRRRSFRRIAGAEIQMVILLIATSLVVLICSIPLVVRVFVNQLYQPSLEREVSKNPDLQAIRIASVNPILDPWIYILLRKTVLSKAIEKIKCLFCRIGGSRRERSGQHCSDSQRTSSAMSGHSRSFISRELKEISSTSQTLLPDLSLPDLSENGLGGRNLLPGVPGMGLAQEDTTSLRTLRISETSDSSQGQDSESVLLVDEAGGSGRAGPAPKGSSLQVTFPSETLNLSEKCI

Selective index, KB EP4/KB EP2 [1] | Kb [1] [µM] | Kb [4, 6] [nM] | Kb [4, 7] [nM] | SMILES | Therapeutic index (in vitro), CC50/KB for EP2 [2] | CC50 at 48 h ([3]; C6G cells) [µM] | other results
39 | 13.7 | 348 |  | COc1cc(C=CC(=O)NCCn2c(C)nc3ccccc32)cc(OC)c1OC [1a, N-(2-(2-methyl-1H-benzo[d]imidazol-1-yl)ethyl)-3-(3,4,5-trimethoxyphenyl)acrylamide] | 1,030 | 360 | 
14 | 13.3 | 947 |  | COc1ccc(C=CC(=O)NCCn2c(C)nc3ccccc32)cc1OC [1b, 3-(3,4-dimethoxyphenyl)-N-(2-(2-methyl-1H-benzo[d]imidazol-1-yl)ethyl)acrylamide] | 473 | 448 | 
10 | 15.3 | 1490 |  | Cc1nc2ccccc2n1CCNC(=O)C=Cc1ccc2c(c1)OCO2 [1c, 3-(benzo[d][1,3]dioxol-5-yl)-N-(2-(2-methyl-1H-benzo[d]imidazol-1-yl)ethyl)acrylamide] | 219 | 325 | 
6 | 13.9 | 2520 |  | COc1cc(C=CC(=O)NCCn2cnc3ccccc32)cc(OC)c1OC [1d, N-(2-(1H-benzo[d]imidazol-1-yl)ethyl)-3-(3,4,5-trimethoxyphenyl)acrylamide] | 123 | 311 | 
 | 18.9 |  |  | COc1cc(/C=C/C(=O)NCCN2CCCCC2C)cc(OC)c1OC (stereo not shown) [1e] |  |  | NMDA-induced LDH release, % of control [5]: did not show any effect and not; CC50 [2]: 316 µM; KB (nM) EP2, from Schild regression analysis ([4]; C6G-EP2 cells, PGE2 as agonist): Inactive
77 | 1.7 | 22.2 |  | COc1ccc(C=CC(=O)NCCn2c(C)cc3cc(F)ccc32)cc1OC [1g, 3-(3,4-dimethoxyphenyl)-N-(2-(5-fluoro-2-methyl-1H-indol-1-yl)ethyl)acrylamide] | 11,900 | 264 | 
381 | 22.4 | 58.8 |  | COc1ccc(/C=C/C(=O)NCCn2c(C(F)(F)F)cc3ccccc32)cc1OC [1i] | 3,550 |  | CC50 [2]: 209 µM
3 | 5.7 | 1860 |  | COc1cc(C=CC(=O)NCCCn2c(C)cc3ccccc32)cc(OC)c1OC [1j, N-(3-(2-methyl-1H-indol-1-yl)propyl)-3-(3,4,5-trimethoxyphenyl)acrylamide] | 98 | 182 | 
90 | 16.6 | 185 |  | COc1cc(C=CC(=O)N(C)CCn2c(C)cc3ccccc32)cc(OC)c1OC [1k, N-methyl-N-(2-(2-methyl-1H-indol-1-yl)ethyl)-3-(3,4,5-trimethoxyphenyl)acrylamide] | 1,500 | 278 | 
 | 18.1 |  |  | COc1cc(CCC(=O)NCCn2c(C)cc3ccccc32)cc(OC)c1OC [1l, N-(2-(2-methyl-1H-indol-1-yl)ethyl)-3-(3,4,5-trimethoxyphenyl)propanamide] |  | 397 | 
277 | 11.7 | 42.4 |  | COc1ccc(C=CC(=O)NCCn2c(C)cc3cc(F)ccc32)cc1 [1n, N-(2-(5-fluoro-2-methyl-1H-indol-1-yl)ethyl)-3-(4-methoxyphenyl)acrylamide] | 15,400 | 653 | 
629 | 11.4 | 18.1 |  | Cc1cc2ccccc2n1CCNC(=O)C=Cc1ccc2c(c1)OCO2 [1o, 3-(benzo[d][1,3]dioxol-5-yl)-N-(2-(2-methyl-1H-indol-1-yl)ethyl)acrylamide] | 8,070 | 146 | 
268 | 1.9 | 7.2 |  | CCOc1ccc(C=CC(=O)NCCn2c(C)cc3ccccc32)cc1OC [1p, 3-(4-ethoxy-3-methoxyphenyl)-N-(2-(2-methyl-1H-indol-1-yl)ethyl)acrylamide] | 71,800 | 517 | 
367 | 30.2 | 82.4 |  | Cc1cc2ccccc2n1CCNC(=O)C=Cc1ccc(CC(C)C)cc1 [1q, 3-(4-isobutylphenyl)-N-(2-(2-methyl-1H-indol-1-yl)ethyl)acrylamide] | 2,420 | 199 | 
2,800 | 10.6 | 3.8 |  | Cc1cc2ccccc2n1CCNC(=O)C=Cc1ccc(F)c(F)c1 [1r, 3-(3,4-difluorophenyl)-N-(2-(2-methyl-1H-indol-1-yl)ethyl)acrylamide] | 23,400 | 89 | 
1,990 | 13.9 | 7 |  | Cc1cc2cc(F)ccc2n1CCNC(=O)C=Cc1ccc(F)c(F)c1 [1s, 3-(3,4-difluorophenyl)-N-(2-(5-fluoro-2-methyl-1H-indol-1-yl)ethyl)acrylamide] | 97,700 | 684 | 
921 | 17.2 | 18.7 |  | Cc1cc2ccccc2n1CCNC(=O)C=Cc1cc(F)c(F)c(F)c1 [1t, N-(2-(2-methyl-1H-indol-1-yl)ethyl)-3-(3,4,5-trifluorophenyl)acrylamide] | 2,460 | 46 | 
715 | 19.9 | 27.8 |  | Cc1cc2cc(F)ccc2n1CCNC(=O)C=Cc1cc(F)c(F)c(F)c1 [1u, N-(2-(5-fluoro-2-methyl-1H-indol-1-yl)ethyl)-3-(3,4,5-trifluorophenyl)acrylamide] | 2,230 | 62 | 

Selective index, KB EP4/KB EP2 [1] | Kb [1] [µM] | Kb [4, 6] [nM] | Kb [4, 7] [nM] | SMILES | Therapeutic index (in vitro), CC50/KB for EP2 [2] | CC50 at 48 h ([3]; C6G cells) [µM] | other results
 |  | 1.8 |  | CCOc1c(Br)cc(CCC(=O)NCCn2c(C)cc3ccccc32)cc1OC [1v] |  |  | Schild plot slope ([4]; C6G-EP2 cells, PGE2): 1.2; Modality of antagonism on EP2 receptor ([4]; Schild plots): competitive antagonism
525 | 3.3 | 6.3 |  | COc1ccc(/C=C/C(=O)NCCn2c(C)cc3cc(F)ccc32)cc1Cl [1x] | 95,400 | 601 | 
859 | 6.9 | 8 |  | COc1cc(OC)c(C=CC(=O)NCCn2c(C)cc3ccccc32)cc1Br [1y, 3-(5-bromo-2,4-dimethoxyphenyl)-N-(2-(2-methyl-1H-indol-1-yl)ethyl)acrylamide] | 155,000 | 1240 | 
 |  |  | 288 | Cc1cc(/C=C/C(=O)NCCn2c(C(F)(F)F)cc3ccccc32)cc(C)c1F [TG7-13] |  |  | 
 |  |  | > 1000 | COc1cc(C(=O)NCCn2c(C)cc3ccccc32)cc(OC)c1OC [TG7-112-1] |  |  | 
 |  |  | 128 | Cc1cc2ccccc2n1CCNC(=O)c1nc2cc(F)ccc2[nH]1 [TG7-118] |  |  | 
 |  |  | > 1000 | Cc1cc2ccccc2n1CCNC(=O)C1CCC(=O)N1 (stereo not shown) [TG7-120] |  |  | 
 |  |  | 217 | COc1cc(/C=C/C(=O)NCCc2c(C)oc3ccccc23)cc(OC)c1OC [TG7-122] |  |  | 
 |  |  | 630 | Cc1cc2ccccc2n1CCNC(=O)c1c[nH]c2c(F)cccc2c1=O [TG7-131] |  |  | 
 |  |  | 150 | Cc1cc2ccccc2n1CCNC(=O)c1ccc(C(N)=O)cc1 [TG7-140] |  |  | 
 |  |  | 51.1 | Cc1cc2ccccc2n1CCNC(=O)c1ccc(N2CCN(C)CC2)c(F)c1 [TG7-141, 3-fluoro-N-(2-(2-methyl-1H-indol-1-yl)ethyl)-4-(4-methylpiperazin-1-yl)benzamide] |  |  | 
 |  |  | 10.4 | Cc1cc2ccccc2n1CCNC(=O)c1ccc(N(C)C)cc1 [TG7-142, 4-(dimethylamino)-N-(2-(2-methyl-1H-indol-1-yl)ethyl)benzamide] |  |  | 
 |  |  | 207 | Cc1cc2ccccc2n1CCNC(=O)c1ccc(N)cc1 [TG7-143] |  |  | 
 |  |  | 138 | CC(=O)Nc1ccc(C(=O)NCCc2c(C)[nH]c3ccccc23)cc1 [TG7-146] |  |  | 
 |  |  | 139 | Cc1cc2ccccc2n1CCNC(=O)c1ccc(C#N)cc1 [TG7-147] |  |  | 
 |  |  | 174 | Cc1cc2ccccc2n1CCNC(=O)c1cnc2ccc(F)cc2c1O [TG7-148] |  |  | 
 |  |  |  | COc1cccc2c1C(=O)c1c(O)c3c(c(O)c1C2=O)C[C@@](O)(C(=O)CO)C[C@@H]3O[C@H]1C[C@H](N)[C@H](O)[C@H](C)O1 [doxorubicin, reference compound] |  |  | CC50 at 48 h [3]: 0.2 µM

SMILES | Selective index, KB EP4/KB EP2 [1] | Kb [1] [µM] | Kb [4, 6] [nM] | Kb [4, 7] [nM] | Therapeutic index (in vitro), CC50/KB for EP2 [2] | CC50 at 48 h ([3]; C6G cells) [µM] | other results
COc1ccc(C=CC(=O)NCCn2c(C)cc3ccccc32)cc1 [1m, 3-(4-methoxyphenyl)-N-(2-(2-methyl-1H-indol-1-yl)ethyl)acrylamide] | 484 | 8 | 16.5 |  | 187,000 | 3090 | 
